The values that follow come from ChEMBL document CHEMBL1201862, “PubChem BioAssay data set” (2004).

Among the test systems are SK-MEL-28; RPMI-8226; MDA-MB-435; LOX IMVI; IGROV-1; OVCAR-8; 786-0; SK-MEL-5; M14; SK-OV-3; ACHN; SF-539; SW-620; SK-MEL-2; MCF7; A498; U-251; NCI-H460; CAKI-1.
What all share (assay): inhibition of tumour cell growth, NCI panel, 48 h

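Five compound concentrations were applied to cells in 96-well plates for 48 hours; endpoints were derived by simple linear interpolation of the resulting dose-response curve. Here, GI50 denotes the concentration required for 50% inhibition of growth.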 Active and inactive are the calls of the source. Rule as the data show it: active = GI50 up to about 1.1 µM and inactive = higher.

With `O=C1CSC(=S)N1/N=C/c1ccc(Cl)c([N+](=O)[O-])c1`, the GI50 in the assay with SK-MEL-28 is 27.5 µM (inactive); with RPMI-8226, 21.5 µM (inactive); with MDA-MB-435, 20.7 µM (inactive); with LOX IMVI, 22.2 µM (inactive); with IGROV-1, 36.7 µM (inactive); in the assay with OVCAR-8 it was 32.9 µM (inactive). The GI50 is 38.6 µM (inactive) in the assay with 786-0; 53.6 µM (inactive) in the assay with SK-MEL-5; 18.8 µM (inactive) in the assay with M14; 36.6 µM (inactive) with SK-OV-3; 23.3 µM (inactive) in the assay on ACHN; 32.8 µM (inactive) in the assay on SF-539. Besides, the GI50 in the assay with SW-620 was 33.7 µM (inactive); in the assay on SK-MEL-2, 29.8 µM (inactive); in the assay on MCF7 it was 13.3 µM (inactive); with A498 it was 61 µM (inactive); in the assay with U-251, 18.5 µM (inactive); in the assay with NCI-H460, 41.3 µM (inactive). Further, the GI50 in the assay on CAKI-1 is 33.7 µM (inactive).
Regarding `COC1=C(Cl)C(=O)c2c(O)ccc(O)c2C1=O`, the GI50 is 2.58 µM (inactive) in the assay on SK-MEL-28; 0.272 µM (active) with RPMI-8226; 1.28 µM (inactive) in the assay with MDA-MB-435; 1.38 µM (inactive) in the assay with LOX IMVI; 1.7 µM (inactive) with IGROV-1; 2 µM (inactive) in the assay on OVCAR-8. Further, the GI50 in the assay with 786-0 is 0.287 µM (active); in the assay on SK-MEL-5, 1.4 µM (inactive); in the assay on M14, 0.541 µM (active); in the assay on SK-OV-3 it was 16 µM (inactive); with ACHN it was 1.02 µM (active); with SF-539 it was 0.578 µM (active). Also, the GI50 is 0.1 µM (active) with SW-620; 0.499 µM (active) in the assay on SK-MEL-2; 1.04 µM (active) in the assay with MCF7; 0.794 µM (active) in the assay with A498; 3.53 µM (inactive) with U-251; 4.44 µM (inactive) in the assay on NCI-H460. Besides, the GI50 in the assay with CAKI-1 was 0.541 µM (active).
For the molecule `O=C(NCP(=O)(O)O)c1cccnc1` [(NICOTINAMIDOMETHYL)PHOSPHONIC ACID], the GI50 in the assay with SK-MEL-28, in the assay with RPMI-8226, with MDA-MB-435, in the assay on LOX IMVI, with IGROV-1 and in the assay on OVCAR-8 was > 100 µM (inactive) throughout. For the same molecule, the GI50 in the assay on 786-0, with SK-MEL-5, in the assay with M14, with SK-OV-3, with ACHN and in the assay with SF-539 was > 100 µM (inactive) each time. For the same molecule, the GI50 in the assay with SW-620, with SK-MEL-2, in the assay with MCF7, in the assay on A498, in the assay on U-251 and in the assay with NCI-H460 was > 100 µM (inactive) throughout. For the same molecule, the GI50 in the assay on CAKI-1 is > 100 µM (inactive).
In the case of `Cc1cc(N(C)c2ccccc2)nc(N(C)c2ccccc2)n1`, the GI50 was 35.5 µM (inactive) in the assay with SK-MEL-28; 28.8 µM (inactive) in the assay on RPMI-8226; 42.9 µM (inactive) with MDA-MB-435; 13.3 µM (inactive) with LOX IMVI; 39 µM (inactive) with IGROV-1; 33 µM (inactive) in the assay on OVCAR-8. The GI50 in the assay on 786-0 is 41.3 µM (inactive); in the assay on SK-MEL-5 it was 27.1 µM (inactive); with M14 it was 41.3 µM (inactive); in the assay with SK-OV-3, > 100 µM (inactive); with ACHN, 28.4 µM (inactive); in the assay with SF-539, 27.1 µM (inactive). Also, the GI50 in the assay on SW-620 is 43.1 µM (inactive); with SK-MEL-2, 15.8 µM (inactive); in the assay on MCF7, 33.7 µM (inactive); with A498, 64.9 µM (inactive); with U-251, 30.7 µM (inactive); with NCI-H460, 49.9 µM (inactive). Besides, the GI50 in the assay with CAKI-1 is > 100 µM (inactive).
As to `COc1ccc(OC)c(-c2cc(C(=O)O)c3cc4ccccc4cc3n2)c1`, the GI50 in the assay with SK-MEL-28, in the assay with RPMI-8226, with MDA-MB-435, in the assay on LOX IMVI, in the assay on IGROV-1 and in the assay on OVCAR-8 was > 100 µM (inactive) each time. Moreover, the GI50 in the assay with 786-0, with SK-MEL-5, in the assay on M14, in the assay on SK-OV-3, with ACHN and in the assay on SF-539 was > 100 µM (inactive) in each case. For the same molecule, the GI50 with SW-620, in the assay on SK-MEL-2, in the assay with MCF7, in the assay with A498, in the assay with U-251 and in the assay with NCI-H460 was > 100 µM (inactive) each time. Also, the GI50 in the assay on CAKI-1 was > 100 µM (inactive).
For the molecule `CCOC(=O)c1cn2c(n1)sc1cc(C)c(C)cc12`, the GI50 in the assay on SK-MEL-28 is 19.2 µM (inactive); with RPMI-8226, 25.6 µM (inactive); in the assay on MDA-MB-435, 20.3 µM (inactive); in the assay with LOX IMVI, 29.1 µM (inactive); in the assay with IGROV-1, 23 µM (inactive); in the assay with OVCAR-8, 24.2 µM (inactive). Also, the GI50 with 786-0 is 19 µM (inactive); in the assay with SK-MEL-5, 16.5 µM (inactive); with M14, 26.5 µM (inactive); in the assay with SK-OV-3, 26.5 µM (inactive); in the assay with ACHN it was 19.1 µM (inactive); with SF-539 it was 14.6 µM (inactive). For the same molecule, the GI50 is 20.1 µM (inactive) in the assay on SW-620; 31.6 µM (inactive) in the assay with SK-MEL-2; 23.6 µM (inactive) in the assay with MCF7; 17.1 µM (inactive) with A498; 18.6 µM (inactive) with U-251; 42.8 µM (inactive) in the assay with NCI-H460. Moreover, the GI50 in the assay with CAKI-1 was 20.6 µM (inactive).
With `COc1ccc2oc(OC)c(CC=C(C)C)c(=O)c2c1C`, the GI50 in the assay on SK-MEL-28, with RPMI-8226, in the assay with MDA-MB-435, with LOX IMVI, with IGROV-1 and with OVCAR-8 was > 100 µM (inactive) in each case. Moreover, the GI50 in the assay on 786-0, with SK-MEL-5, in the assay on M14, in the assay with SK-OV-3, in the assay on ACHN and in the assay on SF-539 was > 100 µM (inactive) throughout. The GI50 in the assay with SW-620, in the assay on SK-MEL-2, in the assay on MCF7, in the assay with A498, in the assay with U-251 and with NCI-H460 was > 100 µM (inactive) throughout. The GI50 with CAKI-1 is > 100 µM (inactive).
For `O=C(O)CCC(=O)c1ccc2ccc3cccc4ccc1c2c34`, the GI50 with SK-MEL-28 was 87.3 µM (inactive); with RPMI-8226, 63 µM (inactive); with MDA-MB-435, 98.2 µM (inactive); in the assay on LOX IMVI it was 71.8 µM (inactive); with IGROV-1, 70.3 µM (inactive); with OVCAR-8, 66.7 µM (inactive). Also, the GI50 was 68.9 µM (inactive) with 786-0; 58.6 µM (inactive) with SK-MEL-5; > 100 µM (inactive) with M14; > 100 µM (inactive) with SK-OV-3; 52.7 µM (inactive) in the assay with ACHN; 27.7 µM (inactive) with SF-539. In addition, the GI50 with SW-620 is 59.2 µM (inactive); in the assay with SK-MEL-2 it was > 100 µM (inactive); with MCF7, 54.3 µM (inactive); in the assay with A498, 67.5 µM (inactive); with U-251, 48.5 µM (inactive); with NCI-H460, 39.3 µM (inactive). Besides, the GI50 in the assay with CAKI-1 is > 100 µM (inactive).
